From the supplement of paper PMC10307832

Tests used:
Experiment in all cases: relative viability (nuclei count vs DMSO), 5 days (fraction); higher = more cells survive
[1] = compound: Cc1ccc2nc(NCCN)c3ncc(C)n3c2c1 + NC(=O)Nc1cc(-c2cccc(F)c2)sc1C(=O)N[C@H]1CCCNC1 [AZD7762] (partner 0.2 µM)
In short: (§1)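 Nuclei were stained with Hoechst during a one-step fixation (final 0.05% Triton X-100, 1% formaldehyde, 1 ug/ml Hoechst) carried out 5 days after dosing, then counted on 4× images. The cells, lung cancer lines in 1536-well plates, had been dosed by pin tool the day after seeding with one drug alone or a fixed anchor-drug dose plus five library-drug doses (not always all listed) in √10 steps. Relative viability is the nuclei count in treated wells divided by that in vehicle wells, and each value is the median of duplicate plates.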

[2] = compound: Cc1ccc2nc(NCCN)c3ncc(C)n3c2c1 + CC(=O)c1c(C)c2cnc(Nc3ccc(N4CCNCC4)cn3)nc2n(C2CCCC2)c1=O [Palbociclib] (partner 0.5 µM)
In short: as §1

Salubrinal + Decitabine = compound: O=C(/C=C/c1ccccc1)NC(NC(=S)Nc1cccc2cccnc12)C(Cl)(Cl)Cl [Salubrinal] + Nc1ncn([C@H]2C[C@H](O)[C@@H](CO)O2)c(=O)n1 [Decitabine] (partner 2 µM)
In short: as §1

Salubrinal + Crizotinib = compound: O=C(/C=C/c1ccccc1)NC(NC(=S)Nc1cccc2cccnc12)C(Cl)(Cl)Cl [Salubrinal] + C[C@@H](Oc1cc(-c2cnn(C3CCNCC3)c2)cnc1N)c1c(Cl)ccc(F)c1Cl [Crizotinib] (partner 1 µM)
In short: as §1

Cell Line	relative viability ([1]; first compound 0.04 µM)	relative viability ([1]; first compound 0.1265 µM)	relative viability ([1]; first compound 0.4 µM)	relative viability ([1]; first compound 1.265 µM)	relative viability ([1]; first compound 4 µM)	relative viability ([2]; first compound 0.04 µM)	relative viability ([2]; first compound 0.1265 µM)	relative viability ([2]; first compound 0.4 µM)	relative viability ([2]; first compound 1.265 µM)	relative viability ([2]; first compound 4 µM)	relative viability (Salubrinal + Decitabine; first compound 0.08 µM)	relative viability (Salubrinal + Decitabine; first compound 0.253 µM)	relative viability (Salubrinal + Decitabine; first compound 0.8 µM)	relative viability (Salubrinal + Decitabine; first compound 8 µM)	relative viability (Salubrinal + Crizotinib; first compound 0.08 µM)	relative viability (Salubrinal + Crizotinib; first compound 0.253 µM)	relative viability (Salubrinal + Crizotinib; first compound 0.8 µM)	relative viability (Salubrinal + Crizotinib; first compound 2.53 µM)	relative viability (Salubrinal + Crizotinib; first compound 8 µM)	relative viability (Salubrinal + Decitabine; first compound 2.53 µM)
NCI-H1993	0.937	0.875	0.554	0.727	0.625	0.627	0.559	0.532	0.501	0.596	0.567	0.662	0.593	0.59	0.795	0.856	0.794	0.909	0.941	
NCI-H322M	0.446	0.703	0.638	0.552	0.605	0.506	0.491	0.512	0.468	0.542	0.785	0.648	0.684	0.656	0.898	0.901	1.08	0.872	0.944	0.716
NCI-H838	1.05	0.932	0.914	0.858	0.874	0.216	0.233	0.233	0.223	0.264	0.493	0.471	0.462	0.464	1.08	0.719	0.854	0.951	0.82	0.417
HARA	0.401	0.33	0.256	0.274	0.337	0.2	0.236	0.237	0.222	0.268	0.402	0.498	0.601	0.605	1.21	0.911	1.03	1.14	0.868	0.517
NCI-H2087	1.35	1.25	1.27	1.28	1.26	0.253	0.271	0.174	0.286	0.323	0.448	0.266	0.295	0.257	0.984	0.758	0.913	0.867	0.865	0.277
NCI-H1437	1.08	1.12	1.16	0.901	1.04	0.3	0.315	0.296	0.248	0.287	0.549	0.502	0.523	0.612	0.975	0.77	1.02	0.909	0.758	0.564
NCI-H358	0.51	0.573	0.413	0.515	0.401	0.122	0.121	0.123	0.145	0.131	0.24	0.219	0.234	0.202	0.559	0.553	0.506	0.51	0.478	0.188
NCI-H1792	0.822	0.665		0.768	0.674	0.694	0.649	0.652	0.562	0.625	0.608		0.741	0.405	1.14		1.33	0.929	0.859	0.49
ChaGo-K-1	0.946	0.901	0.874	0.808	0.921	0.929	0.919	0.919	0.891	0.907	0.574	0.523	0.56	0.467	1.25	0.927	1.44	1.1	0.929	0.523
NCI-H650	0.95	0.901	0.681	0.958	1.03	0.368	0.316	0.258	0.304	0.332	0.288	0.297	0.352	0.323	0.701	0.656	0.792	0.637	0.765	0.298
LK-2	0.393	0.612			0.347	0.502	0.811			0.725	0.269	0.306	0.399	0.266	0.249	0.252	0.247	0.218	0.23	0.385
201T	0.639	0.569	0.66	0.598	0.618	0.396	0.367	0.33	0.363	0.323	0.918	0.815	0.859	0.83	0.997	1	1.05	1.01	1.02	0.84
HCC-44	0.988	1.05	0.933	0.992	1.02	0.934	0.94	0.914	0.894	0.99	0.955	0.969	0.935	0.919	0.833	0.801	0.863	0.748	0.759	0.934
H3255	0.923	0.963	0.829	0.76	0.746	0.329	0.298	0.312	0.327	0.317	0.703	0.649	0.774	0.558	1.16	0.823	1.12	0.804	0.775	0.591
NCI-H647	0.44	0.517	0.38	0.574	0.148	0.41	0.412	0.405	0.413	0.296	0.389	0.452	0.451	0.552	1.44	0.891	1	1.12	0.905	0.443
NCI-H23	0.282	0.297	0.261	0.228	0.22	0.501	0.562	0.437	0.469	0.309	0.315	0.316	0.304	0.291	0.559	0.391	0.621	0.461	0.354	0.312
NCI-H460	0.614	0.636	0.631	0.7	0.541	0.114	0.152	0.147	0.204	0.0833	0.517	0.461	0.475	0.444	1.18	0.891	0.843	0.909	0.541	0.379

Cell Line	relative viability ([1]; first compound 0.04 µM)	relative viability ([1]; first compound 0.1265 µM)	relative viability ([1]; first compound 0.4 µM)	relative viability ([1]; first compound 1.265 µM)	relative viability ([1]; first compound 4 µM)	relative viability ([2]; first compound 0.04 µM)	relative viability ([2]; first compound 0.1265 µM)	relative viability ([2]; first compound 0.4 µM)	relative viability ([2]; first compound 1.265 µM)	relative viability ([2]; first compound 4 µM)	relative viability (Salubrinal + Decitabine; first compound 0.08 µM)	relative viability (Salubrinal + Decitabine; first compound 0.253 µM)	relative viability (Salubrinal + Decitabine; first compound 0.8 µM)	relative viability (Salubrinal + Decitabine; first compound 8 µM)	relative viability (Salubrinal + Crizotinib; first compound 0.08 µM)	relative viability (Salubrinal + Crizotinib; first compound 0.253 µM)	relative viability (Salubrinal + Crizotinib; first compound 0.8 µM)	relative viability (Salubrinal + Crizotinib; first compound 2.53 µM)	relative viability (Salubrinal + Crizotinib; first compound 8 µM)	relative viability (Salubrinal + Decitabine; first compound 2.53 µM)
EKVX	0.723	0.704	0.693	0.682	0.525	0.441	0.358	0.36	0.351	0.295	0.367	0.366	0.482	0.331	1.16	0.811	0.971	0.974	1.07	0.286
NCI-H1944	0.48	0.64	0.456	0.351	0.498	0.333	0.322	0.349	0.31	0.297	0.445	0.452	0.43	0.428	1.22	1.12	1.29	1.08	1.21	0.476
EPLC-272H	0.228	0.404	0.214	0.177	0.166	0.337	0.348	0.315	0.257	0.249	0.403	0.373	0.369	0.362	0.976	0.839	0.887	1.03	0.949	0.405
NCI-H2126	1.12	1.01	0.965	1.14	0.936	0.392	0.392	0.319	0.403	0.372	0.605	0.547	0.589	0.559	1.14	0.961	1.12	1.01	1.03	0.563
LXF-289	1.19	1.1	1.08	1.06	1.12	0.605	0.648	0.604	0.638	0.556	0.338	0.382	0.357	0.405	0.869	0.73	0.818	0.757	0.8	0.43
NCI-H2405	0.855	0.682	0.758	0.671	0.639	0.557	0.511	0.518	0.522	0.508	0.726	0.726	0.754	0.729	0.858	0.866	0.922	0.924	0.958	0.757
NCI-H1755	0.476	0.45	0.492	0.435	0.433	0.454	0.482	0.486	0.455	0.385	0.759	0.686	0.744	0.68	0.991	0.738	1	0.874	0.917	0.725
HCC-78	0.828	0.72	0.616	0.752	0.586	0.499	0.475	0.484	0.437	0.369	0.735	0.661	0.816	0.624	0.363	0.325	0.398	0.308	0.302	0.606
LOU-NH91	0.869	0.789	0.753	0.702	0.733	0.551	0.509	0.52	0.542	0.464	0.837	0.842	0.817	0.777	0.787	0.747	0.74	0.756	0.75	0.845
NCI-H3122	1.05	1.04	0.98	0.973	1.05	0.167	0.193	0.163	0.199	0.213	0.399	0.443	0.51	0.442	0.285	0.277	0.255	0.295	0.276	0.461
HCC-827	0.222	0.265	0.224	0.207	0.18	0.437	0.517	0.473	0.501	0.495	0.303	0.335	0.361	0.341	0.901	0.921	0.992	0.475	0.844	0.345
NCI-H1975	0.791	0.73	0.672	0.66	0.595	0.626	0.583	0.647	0.611	0.517	0.315	0.357	0.351	0.366	1.07	0.722	1.06	0.992	0.816	0.389
NCI-H1651	0.536	0.511	0.409	0.46	0.445	0.545	0.515	0.518	0.512	0.512	0.654	0.542	0.681	0.661	0.923	0.864	0.925	0.858	0.9	0.634
NCI-H441	1.35	1.09	1.05	1.25	1.19	0.251	0.271	0.181	0.26	0.248	0.235	0.243	0.265	0.222	0.689	0.665	0.73	0.766	0.652	0.269
LCLC-103H	0.877	0.821	0.654	0.772	0.752	0.463	0.462	0.428	0.497	0.488	0.772	0.696	0.718	0.608	1.07	1.06	1.05	1.07	0.984	0.782
LCLC-97TM1	0.409	0.321	0.216	0.269	0.225	0.236	0.217	0.247	0.218	0.245	0.248	0.223	0.234	0.257	0.382	0.507	0.446		0.364	0.21
